Publication PMC8910560, “Screening of Novel Bioactive Peptides from Goat Casein: In Silico to In Vitro Validation” (International Journal of Molecular Sciences, 2022)
Ends that are not written are not given here.

Target: T1, angiotensin-I converting enzyme (ACE) (Oryctolagus cuniculus, UniProt P12822)
T1 construct: purchased Sigma-Aldrich
T1 sequence (P12822 34-1310): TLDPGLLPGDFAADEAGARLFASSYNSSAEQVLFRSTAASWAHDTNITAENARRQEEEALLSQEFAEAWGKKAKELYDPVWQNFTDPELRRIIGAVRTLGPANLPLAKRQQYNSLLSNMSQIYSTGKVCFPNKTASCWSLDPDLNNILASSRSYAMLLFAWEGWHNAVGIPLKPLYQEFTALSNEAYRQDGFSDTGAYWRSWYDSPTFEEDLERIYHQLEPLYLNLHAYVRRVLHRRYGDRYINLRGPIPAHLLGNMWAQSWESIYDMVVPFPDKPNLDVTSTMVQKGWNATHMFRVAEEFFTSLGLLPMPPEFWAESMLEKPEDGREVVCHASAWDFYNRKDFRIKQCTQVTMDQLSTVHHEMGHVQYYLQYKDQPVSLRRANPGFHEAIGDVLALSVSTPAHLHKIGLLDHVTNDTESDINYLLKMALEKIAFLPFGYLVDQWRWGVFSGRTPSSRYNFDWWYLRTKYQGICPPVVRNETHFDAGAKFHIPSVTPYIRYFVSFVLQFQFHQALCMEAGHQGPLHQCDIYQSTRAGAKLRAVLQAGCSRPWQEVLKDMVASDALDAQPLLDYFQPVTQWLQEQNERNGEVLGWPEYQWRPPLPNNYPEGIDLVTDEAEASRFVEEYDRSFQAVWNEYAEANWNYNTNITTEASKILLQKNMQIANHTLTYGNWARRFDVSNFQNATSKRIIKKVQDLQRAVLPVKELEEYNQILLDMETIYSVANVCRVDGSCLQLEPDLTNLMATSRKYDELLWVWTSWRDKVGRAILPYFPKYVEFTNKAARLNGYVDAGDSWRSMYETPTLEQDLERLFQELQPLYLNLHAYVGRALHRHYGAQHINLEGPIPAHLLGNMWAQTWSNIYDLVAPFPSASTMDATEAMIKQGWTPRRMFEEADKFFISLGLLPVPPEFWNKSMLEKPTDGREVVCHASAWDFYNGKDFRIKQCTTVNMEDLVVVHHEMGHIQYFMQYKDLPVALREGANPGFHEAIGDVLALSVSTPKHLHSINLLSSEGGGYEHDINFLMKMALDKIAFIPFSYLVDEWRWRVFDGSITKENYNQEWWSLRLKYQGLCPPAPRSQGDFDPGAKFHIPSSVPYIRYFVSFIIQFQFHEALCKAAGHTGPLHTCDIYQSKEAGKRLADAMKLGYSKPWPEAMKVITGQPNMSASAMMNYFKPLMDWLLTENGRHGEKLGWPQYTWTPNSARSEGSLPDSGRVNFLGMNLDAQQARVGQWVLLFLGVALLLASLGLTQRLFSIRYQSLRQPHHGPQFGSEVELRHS
Assay: ACE inhibitory activity (iACE), fluorometric assay
Type: biochemical
Conditions: Digested (simulated gastrointestinal digestion, 50 µg mL^−1 in intestinal compartment)
Description: The ACE inhibitory activity was carried out using the fluorometric assay described by Coscueta, Brassesco, and Pintado (2021). The iACE of each sample (raw peptide and digested) was evaluated in duplicate and expressed as the concentration capable of inhibiting 50% of the enzymatic activity (IC50). To calculate the IC50 values, non-linear modeling was used, and the results were expressed as μg mL^−1 to inhibit 50% of the enzymatic activity.
Simulated gastrointestinal digestion was performed according to the method described by Madureira et al. (2011). Briefly, mouth digestion was mimicked by introducing the peptide sequence (2.5 mg/mL) into 15 mL of a 1 mM CaCl2 solution of 100 U mL^−1 α-amylase, under constant stirring (200 rpm) for 2 min at 37 °C, simulating masticatory movements. A 1 M NaHCO3 solution was used to adjust the pH of artificial saliva to 6.9. Subsequently, a pepsin solution, 25 mg/mL, was added with a ratio of 0.05 mL/mL of a sample at pH 2.0 (simulated gastric solution, stomach) following incubation for 2 h, 37 °C at 130 rpm orbital agitation for the gastric phase. Finally, intestinal digestion and absorption were simulated by adjusting pH values to […] using a 1 M NaHCO3 solution and adding a solution of bile salts and pancreatin to the digest.

| Substance | IC50 [µM] |
| --- | --- |
| YPYQGPIVL [YPYQGPIVL] | > 47.7 |
| QSLVYPFTGPIPNSL [QSLVYPFTGPIPNSL] | > 30.6 |
| SWMHQPP [SWMHQPP] | > 56.7 |

Same assay, conditions: Raw peptide; mean ± SD

| Substance | IC50 [µM] |
| --- | --- |
| MHQPPQPL [MHQPPQPL] | > 3170 |
| YPYQGPIVL [YPYQGPIVL] | 1060 |
| QSLVYPFTGPIPNSL [QSLVYPFTGPIPNSL] | > 1840 |
| HQPPQPL [HQPPQPL] | > 3680 |
| SWMHQPP [SWMHQPP] | 253 |

System: ACE
Assay: not given
Conditions: antihypertensive oligopeptides encoded in human β-casein; cited from earlier work

| Substance | IC50 (ACE) [µg/mL] |
| --- | --- |
| PAVVLP | 26.8 |
| LPQNILP [antihypertensive oligopeptide encoded in the human β-casein] | 36.5 |
| PHQIYP | 22.6 |
| NPPHQIYP [antihypertensive oligopeptide encoded in the human β-casein] | 35.7 |
| VLPYP | 21.1 |
| TVYTKGRVMP [antihypertensive oligopeptide encoded in the human β-casein] | 43.7 |
| VLPIP | 16.7 |
| VMP | 10.0 |

Same assay, conditions: antihypertensive oligopeptides encoded in various β-caseins; cited from earlier work

| Substance | IC50 (ACE) [µg/mL] |
| --- | --- |
| HPFAQTQQSLVYP [antihypertensive oligopeptide encoded in various β-caseins] | 36.1 |
| FAQTQSLVYP [antihypertensive oligopeptide encoded in various β-caseins] | 28.8 |
| SLVYP | 23.7 |

Same assay, conditions: whey-derived peptides; ref Tavares et al. (2011) [14]; cited from earlier work

| Substance | IC50 (ACE) [µg/mL] |
| --- | --- |
| DAQSAPLRVY | 12.2 |
| DKVGINYW | 25.4 |
| KGYGGVSLPEW | 0.7 |

System: not given
Assay: not given
Set-up: method as in Contreras et al. (2013) [21]
Conditions: after the digestion process; ref Contreras et al. (2013) [21]; cited from earlier work

| Substance | change of antioxidant activity | antioxidant capacity [µmol TE µmol^−1 peptide] |
| --- | --- | --- |
| YQKFPQY [casein-derived peptide studied by Contreras et al. (2013)] | reduced |  |
| AYFYPEL [casein-derived peptide studied by Contreras et al. (2013)] |  | 4.160 ± 0.623 |
| RYLGY | reduced |  |

Same assay, conditions: before digestion; ref Contreras et al. (2013) [21]; cited from earlier work

| Substance | antioxidant capacity [µmol TE µmol^−1 peptide] |
| --- | --- |
| AYFYPEL [casein-derived peptide studied by Contreras et al. (2013)] | 3.216 ± 0.114 |
